Where only a bound is given, the exact number is not on record here.

One assay concerns bovine muscle stem cells. The assay can be described thus: Proliferation of bovine muscle stem cells in supplemented DMEM culture medium. Type of assay: cell-based.
Another assay concerns Pax7. Put plainly: qPCR expression level of Pax7 (myoblast marker) in cultured muscle stem cells. Format: cell-based, bovine. The note with it: for expression of Pax7, concentration dependence: concentration series. For orientation: In qPCR the cycle at which signal appears reflects the starting amount.
The next assay has as its system Oct4. The assay can be described thus: qPCR expression level of Oct4 (muscle stem cell marker) in cultured muscle stem cells. Format: cell-based, bovine.
A further assay has as its system Nanog. Put plainly: qPCR expression level of Nanog (muscle stem cell marker) in cultured muscle stem cells. Format: cell-based, bovine.
Setting [1] is: medium with 5% FBS + 8 ng/ml bFGF.
The mark [2] stands for this setting: medium with 5% FBS + 8 ng/ml bFGF, overall statement, passage culture twice.
The mark [3] stands for this setting: bFGF-free medium with 5% FBS, overall statement.
Setting [4] is: glycine 1 mM to 50 mM, bFGF-free.
Setting [5] is: insulin 10 μm or more, with 8 ng/ml bFGF.

Description for Nanog: (§1) In detail, first, bovine rump meat was treated with trypsin, and then primary-cultured to obtain bovine muscle stem cells. Afterwards, a culture medium supplemented with curcumin and bFGF was prepared by varying the concentration of curcumin (0.1 μm, 1 μm, 5 μm, 8 μm, and 10 8 μm, respectively) in a DMEM basal medium supplemented with 5% FBS and 8 ng/ml of bFGF, and the muscle stem cells were cultured through passage culture twice.
(§2) In detail, first, bovine rump meat was treated with trypsin, and then primary-cultured to obtain bovine muscle stem cells. Afterwards, a culture medium supplemented with curcumin was prepared by varying the concentration of curcumin (0.1 μm, 1 μm, 5 μm, 8 μm, and 10 μm, respectively) in a DMEM basal medium supplemented with 5% FBS, and the muscle stem cells were cultured through passage culture twice.
(§3) In detail, first, bovine rump meat was treated with trypsin, and then primary-cultured to obtain bovine muscle stem cells.
(§4) First, bovine rump meat was treated with trypsin, and then primary-cultured to obtain bovine muscle stem cells.
(§5) In detail, first, bovine rump meat was treated with trypsin, and then primary-cultured to obtain bovine muscle stem cells. Afterwards, a culture medium supplemented with insulin and bFGF was prepared by varying the concentration of insulin (0.1 μm, 1 μm, 5 μm, 8 μm, and 10 8 μm, respectively) in a DMEM basal medium supplemented with 5% FBS and 8 ng/ml of bFGF, and the muscle stem cells were cultured through passage culture twice.
(§6) In detail, first, bovine rump meat was treated with trypsin, and then primary-cultured to obtain bovine muscle stem cells. Afterwards, a culture medium supplemented with insulin was prepared by varying the concentration of insulin (0.1 μm, 1 μm, 5 μm, 8 μm, and 10 μm, respectively) in a DMEM basal medium supplemented with 5% FBS, and the muscle stem cells were cultured through passage culture twice.
Description for Oct4: as §1, §2, §3, §4, §5, §6
Description for Pax7: as §1, §2, §3, §4, §5, §6
Description for bovine muscle stem cells: as §3
In detail, first, bovine rump meat was treated with trypsin, and then primary-cultured to obtain bovine muscle stem cells. […] As a control, a DMEM basal medium supplemented with 5% FBS was used.
In detail, first, bovine rump meat was treated with trypsin, and then primary-cultured to obtain bovine muscle stem cells. Afterwards, the muscle stem cells were cultured in the DMEM basal medium supplemented with 5% FBS and 10 μM of insulin, and the proliferation of the muscle stem cells was measured. As a control, a DMEM basal medium supplemented with 5% FBS was used.

Take `COc1cc(/C=C/C(=O)CC(=O)/C=C/c2ccc(O)c(OC)c2)ccc1O` [curcumin]: the “cell proliferation rate increase compared to basal medium” value (“cell proliferation rate increase” below) is on record as no less than 1.5 times with bovine muscle stem cells (8 μm curcumin, DMEM + 5% FBS + 8 ng/ml bFGF, cultured for 29 days) and no less than 1.5 times in the assay with bovine muscle stem cells (8 μm curcumin, DMEM + 5% FBS, bFGF-free, cultured for 41 days). Besides, the “expression of Pax7, concentration dependence” value in the assay with Pax7 (bFGF-free medium with 5% FBS) and in the assay with Pax7 (setting [1]) was “increased in proportion to the concentration of curcumin” each time. The “expression of Pax7” value in the assay with Pax7 (curcumin 8 μm, bFGF-free) is on record as “significantly increased”. Also, the “expression of Oct4 vs curcumin-free DMSO control” value with Oct4 (curcumin 0.1 μm to 5 μm, with 8 ng/ml bFGF) is “increased by about twice”; in the assay with Oct4 (curcumin 1 μm to 5 μm, bFGF-free), “increased by at least about twice”. Also, the “expression of Oct4” value in the assay on Oct4 (curcumin 8 μm or more, with 8 ng/ml bFGF) is listed as “significantly decreased”; in the assay with Oct4 (curcumin 8 μm, bFGF-free), “significantly decreased”; in the assay with Oct4 (setting [2]), “increased”. Also, the “expression of Nanog” value in the assay with Nanog (setting [3]) is “maintained”; with Nanog (curcumin 5 μm or more, with 8 ng/ml bFGF), “significantly decreased”; in the assay on Nanog (curcumin 8 μm, bFGF-free), “significantly decreased”; with Nanog (setting [2]), “increased”. In addition, the “expression of Nanog vs curcumin-free DMSO control” value with Nanog (curcumin 0.1 μm and 1 μm, with 8 ng/ml bFGF) is “increased by about twice”.
Take `NCC(=O)O` [glycine]: the “cell proliferation rate increase” value is no less than 1.5 times in the assay with bovine muscle stem cells (100 mM glycine, DMEM + 5% FBS + 8 ng/ml bFGF, cultured for 29 days) and no less than 4.1 times in the assay with bovine muscle stem cells (100 mM glycine, DMEM + 5% FBS, bFGF-free, cultured for 41 days). In addition, the “expression of Pax7 increase vs insulin-free DMSO control” value with Pax7 (10 µM, bFGF-free insulin culture medium) is on record as no less than 6 times. For the same compound, the “expression of Pax7, concentration dependence” value in the assay on Pax7 (bFGF-free medium with 5% FBS) and in the assay with Pax7 (setting [1]) was “increased in proportion to the concentration of glycine” in each case. For the same compound, the “expression of Pax7 increase vs glycine-free DMSO control” value in the assay with Pax7 (glycine 100 mM or more, bFGF-free) is given as no less than 3 times. The “expression of Oct4 vs glycine-free DMSO control” value with Oct4 (setting [4]) was “increased by about twice”. The “expression of Oct4 increase vs glycine-free DMSO control” value in the assay on Oct4 (glycine 1 mM to 50 mM, with 8 ng/ml bFGF) is on record as “about 2.3 times”. The “expression of Oct4” value in the assay on Oct4 (glycine 100 mM or more, with 8 ng/ml bFGF) is “significantly decreased”; with Oct4 (glycine 100 mM, bFGF-free) it was “significantly decreased”; with Oct4 (setting [2]), “increased”. Further, the “expression of Nanog vs glycine-free DMSO control” value in the assay on Nanog (setting [4]) was “increased by about twice”; in the assay with Nanog (glycine 10 mM to 100 mM, with 8 ng/ml bFGF), “increased by about twice”. Moreover, the “expression of Nanog” value with Nanog (glycine 100 mM, bFGF-free) is “significantly decreased”; in the assay with Nanog (glycine 150 mM or more, with 8 ng/ml bFGF), “significantly decreased”; in the assay with Nanog (setting [2]), “increased”.
For insulin, the “cell proliferation rate increase” value is listed as no less than 6 times with bovine muscle stem cells (10 μm insulin, DMEM + 5% FBS + 8 ng/ml bFGF, cultured for 29 days) and no less than 13 times in the assay with bovine muscle stem cells (10 μm insulin, DMEM + 5% FBS, bFGF-free, cultured for 41 days). In addition, the “expression of Pax7, concentration dependence” value in the assay with Pax7 (bFGF-free medium with 5% FBS) and in the assay on Pax7 (setting [1]) was “increased in proportion to the concentration of insulin” in each case. Also, the “expression of Oct4” value is given as “increased” in the assay on Oct4 (setting [3]), “significantly decreased” with Oct4 (setting [5]) and “increased” in the assay with Oct4 (setting [2]). The “expression of Nanog” value in the assay on Nanog (setting [3]) is listed as “maintained”; in the assay with Nanog (setting [5]), “significantly decreased”; in the assay on Nanog (insulin 10 μm, bFGF-free), “significantly decreased”; in the assay on Nanog (setting [2]), “increased”.

These data come from US20240182859A1, “MEDIUM COMPOSITION FOR CULTURING MUSCLE STEM CELL COMPRISING CURCUMIN LONGA, GLYSIN, OR INSULIN FOR PROLIFERATION OF MUSCLE STEM CELL” (HYUPSUNG UNIVERSITY INDUSTRY-ACADEMIC COOPERATION FOUNDATION, priority 2021, published 2024).
